# Tested on: patients with narcolepsy type 1 (NT1)
# Assay: Safety/tolerability of a single dose given as 9 hour continuous IV infusion in NT1 patients
# Assay type: in vivo, human
# Protocol: This study investigates (i) the safety and tolerability of Compound A (methyl (2R,3S)-3-((methylsulfonyl)amino)-2-(((cis-4-phenylcyclohexyl)oxy)methyl)piperidine-1-carboxylate) when a single dose given as a 9 hour continuous IV infusion is administered to healthy adults, healthy elderly subjects and patients with narcolepsy type 1 (NT1); (ii) the pharmacokinetics of Compound A when a single dose given as a 9 hour continuous IV infusion is administered to healthy adults, healthy elderly subjects and patients with narcolepsy type 1; and (iii) the pharmacodynamics (PD) effects of Compound A, primarily by evaluation of the sleep latency on MWT when a single dose given as a 9 hour continuous IV infusion is administered to patients with narcolepsy type 1.
# Safety and tolerability: adverse events, vital signs, 12-lead ECG and clinical laboratory tests (hematological tests, blood biochemical tests and urinalysis)
# To investigate the safety of Compound A, the treatment-emergent adverse events (TEAEs) for healthy subjects and subjects with narcolepsy type 1 (NT1 patients) treated with Compound A were evaluated. A summary of the TEAEs for healthy subjects from cohorts 1 and 2 is shown in FIG. 3, for healthy subjects from cohorts S1, S2, 3, and 4 is shown in FIG. 4, and for NT1 patients is shown in FIG. 5.
smiles,measurement,setting,value
"COC(=O)N1CCC[C@H](NS(C)(=O)=O)[C@@H]1CO[C@H]1CC[C@@H](c2ccccc2)CC1 [Compound A, methyl (2R,3S)-3-((methylsulfonyl)amino)-2-(((cis-4-phenylcyclohexyl)oxy)methyl)piperidine-1-carboxylate]",AEs observed in NT1 at the highest dose,44.8 mg,"Blood pressure increase, heart rate increase, central nervous system (CNS) related symptoms (euphoric mood, hypnagogic hallucination and logorrhea) and salivary hypersecretion were observed"
same,dose dependent effect on BP and heart rate increase,"NT1 subjects, doses up to 44.8 mg",not notable
same,tolerability,"single dose, slow infusion over 9 hours, up to 44.8 mg, narcolepsy type 1 patients",well-tolerated with no major safety concerns
